In patent US8486991B2, “Enantiomerically pure phosphoindoles as HIV inhibitors” (Idenix Pharmaceuticals, Inc., priority 2006, dated 2013):

Experiments:
[1] = In vitro half-life in liver microsomes, human; type: in vitro ADME; details: microsomes, up to one hour, longer half-lives are extrapolated, n=1
Procedure: (§1) In vitro metabolism was assessed using liver microsomes for all species. Compounds were incubated at 1 μM with liver microsomes for up to one hour. Reported half-lives greater than the total incubation time are extrapolated values. Extracts were assayed for disappearance of parent compound by LC-MS/MS detection.
(§2) Data represents one independent experiment conducted.

[2] = biological target: CYP3A4 (Homo sapiens, UniProt P08684); test: Recombinant CYP450 inhibition, fluorometric, CYP3A4; type: in vitro ADME; design: from tissue; host or cells: pooled human liver microsomes
Procedure: (§3) Compounds were assayed using recombinant human microsomal proteins with fluorometric substrates. Signal was measured with a Fusion plate reader utilizing the appropriate excitation and emission wavelength set to detect the specific metabolite: […]

[3] = In vitro half-life in liver microsomes, monkey; type: in vitro ADME; details: microsomes, up to one hour, n=1
Procedure: as §1, §2

[4] = In vitro half-life in liver microsomes, rat; type: in vitro ADME; details: microsomes, up to one hour, longer half-lives are extrapolated, n=1
Procedure: as §1, §2

[5] = In vitro half-life in liver microsomes, dog; type: in vitro ADME; details: microsomes, up to one hour, longer half-lives are extrapolated, n=1
Procedure: as §1, §2

[6] = biological target: CYP2D6 (Homo sapiens, UniProt P10635); test: Recombinant CYP450 inhibition, fluorometric, CYP2D6; type: in vitro ADME; design: from tissue; host or cells: pooled human liver microsomes; details: recombinant enzyme, read-out: percentage of inhibition at the highest concentration tested, CYP2D6
Procedure: as §3

[7] = biological target: CYP2C9 (Homo sapiens, UniProt P11712); test: Recombinant CYP450 inhibition, Luciferin-H, CYP2C9; type: in vitro ADME; design: from tissue; host or cells: pooled human liver microsomes; details: highest concentration tested 10 μM
Procedure: CYP2C9 inhibition was performed by incubating a luminogenic CYP450 substrate Luciferin-H with CYP2C9 and an NADPH regeneration system. Luminescence measured using a Fusion plate reader.

[8] = system: CYP3A4 (activation of PXR in DPX2 cells); test: CYP3A4 induction screen in DPX2 cells; type: cell-based, human; details: extent compared with rifampicine, mifepristone, androstanol
Description: The potential for in vitro induction of CYP3A4 was screened in DPX2 cells. The DPX2 cell line is a derivative of a human hepatocellular carcinoma cell line (HepG2) transformed with the human pregnane x receptor (PXR) and a reporter gene vector containing the enhancer region of CYP3A4. The potential for in vitro induction of CYP1A2 was screened in CYP1A2-DRE cells. The CYP1A2-DRE cell line is a stably transformed HepG2 cells with dioxin response elements (DRE) and reporter gene containing CYP1A2 promoter elements. The extent of CYP3A4 induction was determined by comparing the activation of PXR obtained with test article to that obtained with rifampicine (potent inducer), mifepristone (moderate inducer) and androstanol (weak inducer). The extent of CYP1A2 induction was determined by comparing the activation of the aryl hydrocarbon receptor (AhR) obtained with test article to that obtained with TCDD (potent inducer), omeprazole (moderate inducer), and 2-acetylaminofluorene (weak inducer).

Sequence of CYP3A4 (P08684 whole entry, the tested form may be a part): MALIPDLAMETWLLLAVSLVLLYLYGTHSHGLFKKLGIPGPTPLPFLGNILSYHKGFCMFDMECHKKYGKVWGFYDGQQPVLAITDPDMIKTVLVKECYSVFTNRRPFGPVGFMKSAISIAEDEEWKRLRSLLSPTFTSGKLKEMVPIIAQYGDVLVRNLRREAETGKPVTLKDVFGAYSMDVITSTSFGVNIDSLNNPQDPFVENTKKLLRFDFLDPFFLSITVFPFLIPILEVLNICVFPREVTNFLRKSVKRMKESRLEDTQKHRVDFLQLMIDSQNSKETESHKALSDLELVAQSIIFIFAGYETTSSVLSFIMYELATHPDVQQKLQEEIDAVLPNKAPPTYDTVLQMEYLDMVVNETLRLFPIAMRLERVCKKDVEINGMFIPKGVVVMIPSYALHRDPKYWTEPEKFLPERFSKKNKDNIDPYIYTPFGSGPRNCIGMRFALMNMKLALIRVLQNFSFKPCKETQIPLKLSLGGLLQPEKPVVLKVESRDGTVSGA
Sequence of CYP2D6 (P10635 whole entry): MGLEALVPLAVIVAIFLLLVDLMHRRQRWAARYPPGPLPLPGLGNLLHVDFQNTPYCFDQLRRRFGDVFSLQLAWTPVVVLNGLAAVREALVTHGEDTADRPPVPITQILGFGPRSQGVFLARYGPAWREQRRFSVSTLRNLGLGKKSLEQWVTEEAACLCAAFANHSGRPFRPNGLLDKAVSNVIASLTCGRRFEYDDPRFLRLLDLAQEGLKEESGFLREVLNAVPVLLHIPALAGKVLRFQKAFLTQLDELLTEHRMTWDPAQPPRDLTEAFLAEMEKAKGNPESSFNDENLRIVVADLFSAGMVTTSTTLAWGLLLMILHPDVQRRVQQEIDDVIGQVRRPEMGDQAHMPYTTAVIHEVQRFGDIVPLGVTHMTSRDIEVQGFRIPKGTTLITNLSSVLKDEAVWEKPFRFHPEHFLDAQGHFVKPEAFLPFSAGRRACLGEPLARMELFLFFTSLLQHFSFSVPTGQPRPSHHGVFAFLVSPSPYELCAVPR
Sequence of CYP2C9 (P11712 whole entry, the tested form may be a part): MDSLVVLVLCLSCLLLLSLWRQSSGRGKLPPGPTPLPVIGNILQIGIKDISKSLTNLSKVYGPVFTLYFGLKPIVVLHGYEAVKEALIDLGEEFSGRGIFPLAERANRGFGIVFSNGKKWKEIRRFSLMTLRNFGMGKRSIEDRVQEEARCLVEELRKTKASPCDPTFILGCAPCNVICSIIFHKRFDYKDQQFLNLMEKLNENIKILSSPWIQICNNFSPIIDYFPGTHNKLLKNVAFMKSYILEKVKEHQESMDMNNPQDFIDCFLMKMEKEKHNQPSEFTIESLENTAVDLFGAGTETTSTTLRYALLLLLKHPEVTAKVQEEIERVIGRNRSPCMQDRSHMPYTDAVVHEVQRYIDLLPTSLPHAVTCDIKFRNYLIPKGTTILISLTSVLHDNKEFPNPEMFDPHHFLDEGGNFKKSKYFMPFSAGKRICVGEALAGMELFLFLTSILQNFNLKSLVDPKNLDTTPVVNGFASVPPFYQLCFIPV

| Compound | half-life at 1 μM [1] [h] | IC50 [2] [nM] | half-life at 1 μM [3] [h] | half-life at 1 μM [4] [h] | half-life at 1 μM [5] [h] | inhibition at 10 µM [6] [%] | IC50 [7] [nM] | Induction, DPX2 (CYP3A4) [8] |
| --- | --- | --- | --- | --- | --- | --- | --- | --- |
| COP(=O)(c1cc(C)cc(/C=C/C#N)c1)c1c(C(N)=O)[nH]c2ccc(Cl)c(F)c12 (racemic) [rac (I + II), 5-chloro-4-fluoro-3-[methyl 3-((E)-2-cyanovinyl)-5-methylphenyl]phosphinoyl-1H-indole-2-carboxamide] | 1.92 | 1610 | 0.307 | 2.43 | 4.78 |  |  |  |
| COP(=O)(c1cc(C)cc(/C=C/C#N)c1)c1c(C(N)=O)[nH]c2ccc(Cl)cc12 (racemic) [rac (III + IV), 5-chloro-3-[methyl 3-((E)-2-cyanovinyl)-5-methylphenyl]phosphinoyl-1H-indole-2-carboxamide] | 1.52 | 2270 | 0.272 | 1.75 | 4.28 | 16 to 23 | 5990 | Moderate (n = 1) |
